Target: T1, muscarinic M3 receptor (Homo sapiens, UniProt P20309)
T1 construct: using HEK293 cells which express the receptor endogenously; endogenous in cells; host or cells: HEK293
Assay: Antagonist activity on muscarinic M3 receptor, FLIPR Tetra calcium assay in HEK293 cells
Type: cell-based
Details: antagonist mode versus carbachol at its EC50, HEK293 cells, calcium fluorescence

T1 sequence (P20309 whole entry): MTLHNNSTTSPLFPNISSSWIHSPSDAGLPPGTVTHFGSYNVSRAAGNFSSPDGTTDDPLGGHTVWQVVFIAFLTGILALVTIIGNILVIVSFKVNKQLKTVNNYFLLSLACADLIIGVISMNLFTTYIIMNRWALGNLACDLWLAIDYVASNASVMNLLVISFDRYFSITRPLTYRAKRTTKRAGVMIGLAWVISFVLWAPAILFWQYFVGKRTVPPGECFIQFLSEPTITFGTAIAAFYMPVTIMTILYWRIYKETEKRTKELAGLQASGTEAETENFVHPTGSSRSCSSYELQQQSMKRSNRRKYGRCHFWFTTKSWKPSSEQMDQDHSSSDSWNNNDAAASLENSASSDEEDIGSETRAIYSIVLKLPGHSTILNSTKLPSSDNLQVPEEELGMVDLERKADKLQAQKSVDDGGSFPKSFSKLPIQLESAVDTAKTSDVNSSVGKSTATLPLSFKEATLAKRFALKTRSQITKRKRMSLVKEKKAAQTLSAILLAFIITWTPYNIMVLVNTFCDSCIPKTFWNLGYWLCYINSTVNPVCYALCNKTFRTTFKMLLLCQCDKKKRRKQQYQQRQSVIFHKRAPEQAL

IC50: >1 µg/mL
Substance: Vitamin E [Vitamin E (as in Example 1)]

— patent US12109246B2, “Composition for the treatment and/or prevention of lower urinary tract symptoms” (SERELYS PHARMA S.A.M., priority 2019, dated 2024)
